Measured values: patent US6313116A, “Benzothiazole compounds and their therapeutic use” (Darwin Discovery, Ltd., priority 2000, dated 2001)

Molecular target: phosphodiesterase IV
Experiment: phosphodiesterase IV inhibitory activity (standard assay procedures)
Format: biochemical
Conditions: assay not given
From the text: The assays used to confirm the phosphodiesterase IV inhibitory activity of compounds of formula (I) are standard assay procedures as disclosed by Schilling et al, Anal. Biochem. 216:154 (1994), Thompson and Strada, Adv. Cycl. Nucl. Res. 8:119 (1979) and Gristwood and Owen, Br. J. Pharmacol. 87:91P (1986).

- IC50: 17 nM
Structure (SMILES): CCc1nc2c(OC)ccc(C(=O)Nc3ccnn3C)c2s1 [Example 5, 2-Ethyl-4-methoxybenzothiazole-7-carboxylic acid (2-methyl-2H-pyrazol-3-yl)amide]
